Assay results taken from patent US20230416225A1, “DIAMINOPYRIMIDINE CARBOXAMIDE INHIBITORS OF HPK1” (MERCK SHARP & DOHME LLC, priority 2020, published 2023).

Target: T1, Human HPK1, catalytic domain (Homo sapiens, UniProt Q92918)
T1 construct: purchased Carna
T1 sequence (Q92918 1-346): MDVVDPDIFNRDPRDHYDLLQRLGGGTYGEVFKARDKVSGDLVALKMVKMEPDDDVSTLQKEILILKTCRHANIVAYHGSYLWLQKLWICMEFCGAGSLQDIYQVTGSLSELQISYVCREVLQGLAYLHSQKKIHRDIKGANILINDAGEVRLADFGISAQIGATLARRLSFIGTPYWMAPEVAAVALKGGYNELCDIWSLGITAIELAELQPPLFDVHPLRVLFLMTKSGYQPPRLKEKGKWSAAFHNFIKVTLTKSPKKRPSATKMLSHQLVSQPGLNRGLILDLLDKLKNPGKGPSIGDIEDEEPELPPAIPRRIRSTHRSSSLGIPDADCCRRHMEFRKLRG
Test: HPK1-SLP76 TR-FRET assay
Assay type: biochemical
Settings: 75 pM HPK1, 10 uM ATP, 10 nM SLP76, 30 min compound pre-incubation

Compound | IC50
COc1cc2c(cc1Nc1ncc(C(N)=O)c(NCc3cnc4ccccn34)n1)CN(C)CC2 [Example 26-56, 4-{[(imidazo[1,2-a]pyridin-3-yl)methyl]amino}-2-[(6-methoxy-2-methyl-1,2,3,4-tetrahydroisoquinolin-7-yl)amino]pyrimidine-5-carboxamide] | 777 nM
COc1cc2c(cc1Nc1ncc(C(N)=O)c(NCc3ccccc3O)n1)CN(C)CC2 [Example 26-57, 4-{[(2-hydroxyphenyl)methyl]amino}-2-[(6-methoxy-2-methyl-1,2,3,4-tetrahydroisoquinolin-7-yl)amino]pyrimidine-5-carboxamide] | 3.19 nM
COc1cc2c(cc1Nc1ncc(C(N)=O)c(NCc3cccc(C#N)c3)n1)CN(C)CC2 [Example 26-58, 4-{[(3-cyanophenyl)methyl]amino}-2-[(6-methoxy-2-methyl-1,2,3,4-tetrahydroisoquinolin-7-yl)amino]pyrimidine-5-carboxamide] | 9.83 nM
COc1cc2c(cc1Nc1ncc(C(N)=O)c(NCc3ccc(C#N)cc3)n1)CN(C)CC2 [Example 26-59, 4-{[(4-cyanophenyl)methyl]amino}-2-[(6-methoxy-2-methyl-1,2,3,4-tetrahydroisoquinolin-7-yl)amino]pyrimidine-5-carboxamide] | 48.3 nM
COc1cc2c(cc1Nc1ncc(C(N)=O)c(NCc3nccs3)n1)CN(C)CC2 [Example 26-60, 2-[(6-methoxy-2-methyl-1,2,3,4-tetrahydroisoquinolin-7-yl)amino]-4-{[(1,3-thiazol-2-yl)methyl]amino}pyrimidine-5-carboxamide] | 4.89 nM
COc1cc2c(cc1Nc1ncc(C(N)=O)c(NCc3ccc(C(F)(F)F)cc3)n1)CN(C)CC2 [Example 26-61, 2-[(6-methoxy-2-methyl-1,2,3,4-tetrahydroisoquinolin-7-yl)amino]-4-({[4-(trifluoromethyl)phenyl]methyl}amino)pyrimidine-5-carboxamide] | 146 nM
COc1cc2c(cc1Nc1ncc(C(N)=O)c(N[C@H]3c4ccccc4C[C@H]3CO)n1)CN(C)CC2 [Example 26-62, 4-{[(1R,2R)-2-(hydroxymethyl)-2,3-dihydro-1H-inden-1-yl]amino}-2-[(6-methoxy-2-methyl-1,2,3,4-tetrahydroisoquinolin-7-yl)amino]pyrimidine-5-carboxamide] | 15.6 nM
COc1cc2c(cc1Nc1ncc(C(N)=O)c(N[C@H]3c4ccccc4C[C@H]3O)n1)CN(C)CC2 [Example 26-63, 4-{[(1S,2R)-2-hydroxy-2,3-dihydro-1H-inden-1-yl]amino}-2-[(6-methoxy-2-methyl-1,2,3,4-tetrahydroisoquinolin-7-yl)amino]pyrimidine-5-carboxamide] | 109 nM
COc1cc2c(cc1Nc1ncc(C(N)=O)c(N[C@@H]3c4ccccc4C[C@@H]3O)n1)CN(C)CC2 [Example 26-64, 4-{[(1R,2S)-2-hydroxy-2,3-dihydro-1H-inden-1-yl]amino}-2-[(6-methoxy-2-methyl-1,2,3,4-tetrahydroisoquinolin-7-yl)amino]pyrimidine-5-carboxamide] | 0.86 nM
COc1cc2c(cc1Nc1ncc(C(N)=O)c(N[C@@H]3c4ccccc4C[C@H]3O)n1)CN(C)CC2 [Example 26-65, 4-{[(1R,2R)-2-hydroxy-2,3-dihydro-1H-inden-1-yl]amino}-2-[(6-methoxy-2-methyl-1,2,3,4-tetrahydroisoquinolin-7-yl)amino]pyrimidine-5-carboxamide] | 17.8 nM
COc1cc2c(cc1Nc1ncc(C(N)=O)c(N[C@H]3c4ccccc4C[C@@H]3O)n1)CN(C)CC2 [Example 26-66, 4-{[(1S,2S)-2-hydroxy-2,3-dihydro-1H-inden-1-yl]amino}-2-[(6-methoxy-2-methyl-1,2,3,4-tetrahydroisoquinolin-7-yl)amino]pyrimidine-5-carboxamide] | 193 nM
COc1cc2c(cc1Nc1ncc(C(N)=O)c(N[C@@H]3CCc4ccccc43)n1)CN(C)CC2 [Example 26-67, 4-{[(1R)-2,3-dihydro-1H-inden-1-yl]amino}-2-[(6-methoxy-2-methyl-1,2,3,4-tetrahydroisoquinolin-7-yl)amino]pyrimidine-5-carboxamide] | 4.74 nM
COc1cc2c(cc1Nc1ncc(C(N)=O)c(NC3CCc4cc(F)cc(F)c43)n1)CN(C)CC2 (centres unmarked) [Example 26-68, 4-[(5,7-difluoro-2,3-dihydro-1H-inden-1-yl)amino]-2-[(6-methoxy-2-methyl-1,2,3,4-tetrahydroisoquinolin-7-yl)amino]pyrimidine-5-carboxamide] | 2.62 nM
COc1ccc2c(c1)C(Nc1nc(Nc3cc4c(cc3OC)CCN(C)C4)ncc1C(N)=O)CC2 (centres unmarked) [Example 26-69, 4-[(6-methoxy-2,3-dihydro-1H-inden-1-yl)amino]-2-[(6-methoxy-2-methyl-1,2,3,4-tetrahydroisoquinolin-7-yl)amino]pyrimidine-5-carboxamide] | 42.5 nM
COc1cc2c(cc1Nc1ncc(C(N)=O)c(NC3CCc4c(F)ccc(F)c43)n1)CN(C)CC2 (centres unmarked) [Example 26-70, 4-[(4,7-difluoro-2,3-dihydro-1H-inden-1-yl)amino]-2-[(6-methoxy-2-methyl-1,2,3,4-tetrahydroisoquinolin-7-yl)amino]pyrimidine-5-carboxamide] | 2.71 nM
COc1cc2c(cc1Nc1ncc(C(N)=O)c(NC3CCc4ccc(C)cc43)n1)CN(C)CC2 (centres unmarked) [Example 26-71, 2-[(6-methoxy-2-methyl-1,2,3,4-tetrahydroisoquinolin-7-yl)amino]-4-[(6-methyl-2,3-dihydro-1H-inden-1-yl)amino]pyrimidine-5-carboxamide] | 32.8 nM
COc1cc2c(cc1Nc1ncc(C(N)=O)c(NCC3CCNCC3)n1)CN(C)CC2 [Example 26-72, 2-[(6-methoxy-2-methyl-1,2,3,4-tetrahydroisoquinolin-7-yl)amino]-4-{[(piperidin-4-yl)methyl]amino}pyrimidine-5-carboxamide] | 1.23 nM
